Where a name gives a salt, the structure may show the parent alone.
Columns and labels:
[1] = biological target: 5-hydroxytryptamine receptor 1D (Homo sapiens, UniProt P28221); experiment: (§1) PDSP Secondary Binding target: HTR1D - Compounds are tested at 10 uM concentration, plate are incubated at room temperature in the dark for 90 minutes. Reaction are stopped by vacuum filtration onto 0.3% polyethyleneimine soaked filter mats using Filtermate harvester. Scintillation cocktail is then melted onto microwave-dried filters on a hot plate and the radio activity is counted in Microbia counter.
Chain of 5-hydroxytryptamine receptor 1D (P28221 whole entry): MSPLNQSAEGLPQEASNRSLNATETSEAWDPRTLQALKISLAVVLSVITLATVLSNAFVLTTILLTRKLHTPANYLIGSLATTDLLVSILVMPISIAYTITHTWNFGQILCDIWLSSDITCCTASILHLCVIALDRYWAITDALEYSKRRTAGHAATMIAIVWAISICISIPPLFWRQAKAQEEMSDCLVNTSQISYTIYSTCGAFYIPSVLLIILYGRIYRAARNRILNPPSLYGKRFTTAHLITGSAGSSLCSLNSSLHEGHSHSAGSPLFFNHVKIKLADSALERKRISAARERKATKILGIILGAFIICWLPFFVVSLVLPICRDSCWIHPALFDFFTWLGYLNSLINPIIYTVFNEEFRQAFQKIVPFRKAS

[2] = biological target: 5-hydroxytryptamine receptor 7 (Homo sapiens, UniProt P34969); experiment: as §1, with “HTR7” for “HTR1D”
Chain of 5-hydroxytryptamine receptor 7 (P34969 whole entry): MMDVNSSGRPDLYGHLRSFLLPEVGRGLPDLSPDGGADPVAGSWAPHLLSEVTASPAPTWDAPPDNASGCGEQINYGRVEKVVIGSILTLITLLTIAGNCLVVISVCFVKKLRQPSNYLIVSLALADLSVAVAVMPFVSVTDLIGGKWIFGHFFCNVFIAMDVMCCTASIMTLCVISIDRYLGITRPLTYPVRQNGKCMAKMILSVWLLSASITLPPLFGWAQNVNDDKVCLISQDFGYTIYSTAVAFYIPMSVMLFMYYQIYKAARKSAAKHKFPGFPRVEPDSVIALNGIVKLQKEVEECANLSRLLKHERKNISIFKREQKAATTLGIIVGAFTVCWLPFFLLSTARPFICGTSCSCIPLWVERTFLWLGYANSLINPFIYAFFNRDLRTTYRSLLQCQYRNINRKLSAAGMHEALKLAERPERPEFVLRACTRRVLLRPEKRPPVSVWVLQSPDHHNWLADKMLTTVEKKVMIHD

[3] = biological target: Sigma intracellular receptor 2 (Homo sapiens, UniProt Q5BJF2); experiment: as §1, with “TMEM97” for “HTR1D”
Chain of Sigma intracellular receptor 2 (Q5BJF2 whole entry): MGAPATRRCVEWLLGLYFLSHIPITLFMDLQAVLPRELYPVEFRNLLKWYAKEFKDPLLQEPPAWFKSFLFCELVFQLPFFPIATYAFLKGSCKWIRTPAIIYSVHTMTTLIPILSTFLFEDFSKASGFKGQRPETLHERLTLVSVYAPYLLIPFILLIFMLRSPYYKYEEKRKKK

[4] = biological target: Sigma non-opioid intracellular receptor 1 (Homo sapiens, UniProt Q99720); experiment: as §1, with “SIGMAR1” for “HTR1D”
Chain of Sigma non-opioid intracellular receptor 1 (Q99720 whole entry): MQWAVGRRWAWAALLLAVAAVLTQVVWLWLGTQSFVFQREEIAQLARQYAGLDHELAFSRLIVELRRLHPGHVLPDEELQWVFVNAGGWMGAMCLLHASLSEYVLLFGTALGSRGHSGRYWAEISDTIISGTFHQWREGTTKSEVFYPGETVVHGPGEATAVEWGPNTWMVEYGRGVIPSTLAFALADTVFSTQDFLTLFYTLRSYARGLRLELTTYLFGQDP

D(1A) dopamine receptor = D(1A) dopamine receptor (Homo sapiens, UniProt P21728); experiment: as §1, with “DRD1” for “HTR1D”
Chain of D(1A) dopamine receptor (P21728 whole entry): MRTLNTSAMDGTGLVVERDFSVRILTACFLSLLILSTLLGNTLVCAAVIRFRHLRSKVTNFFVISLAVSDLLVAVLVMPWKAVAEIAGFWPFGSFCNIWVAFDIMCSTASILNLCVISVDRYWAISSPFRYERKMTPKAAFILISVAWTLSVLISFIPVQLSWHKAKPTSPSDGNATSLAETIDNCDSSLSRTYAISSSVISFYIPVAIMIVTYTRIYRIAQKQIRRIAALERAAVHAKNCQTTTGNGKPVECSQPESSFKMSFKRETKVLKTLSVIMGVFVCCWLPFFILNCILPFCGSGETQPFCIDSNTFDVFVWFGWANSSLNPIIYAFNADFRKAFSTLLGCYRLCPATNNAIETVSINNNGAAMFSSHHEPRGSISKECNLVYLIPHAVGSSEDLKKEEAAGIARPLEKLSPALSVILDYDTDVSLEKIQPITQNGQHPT

[5] = biological target: T1, Alpha-1A adrenergic receptor (Homo sapiens, UniProt P35348); experiment: as §1, with “ADRA1A” for “HTR1D”
T1 sequence (P35348 whole entry): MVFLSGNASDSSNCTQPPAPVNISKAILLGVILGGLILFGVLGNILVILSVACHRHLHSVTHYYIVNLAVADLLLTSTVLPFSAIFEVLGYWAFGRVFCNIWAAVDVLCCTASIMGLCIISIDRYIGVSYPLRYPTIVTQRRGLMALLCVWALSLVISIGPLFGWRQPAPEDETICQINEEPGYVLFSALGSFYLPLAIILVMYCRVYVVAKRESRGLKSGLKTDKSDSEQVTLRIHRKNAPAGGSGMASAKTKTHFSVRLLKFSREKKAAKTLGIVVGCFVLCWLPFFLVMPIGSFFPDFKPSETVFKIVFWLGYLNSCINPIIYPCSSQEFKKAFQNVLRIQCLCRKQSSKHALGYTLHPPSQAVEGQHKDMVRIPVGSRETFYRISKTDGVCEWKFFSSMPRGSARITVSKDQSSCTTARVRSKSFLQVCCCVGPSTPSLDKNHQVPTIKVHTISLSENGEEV

Histamine H1 receptor = Histamine H1 receptor (Homo sapiens, UniProt P35367); experiment: as §1, with “HRH1” for “HTR1D”
Chain of Histamine H1 receptor (P35367 whole entry): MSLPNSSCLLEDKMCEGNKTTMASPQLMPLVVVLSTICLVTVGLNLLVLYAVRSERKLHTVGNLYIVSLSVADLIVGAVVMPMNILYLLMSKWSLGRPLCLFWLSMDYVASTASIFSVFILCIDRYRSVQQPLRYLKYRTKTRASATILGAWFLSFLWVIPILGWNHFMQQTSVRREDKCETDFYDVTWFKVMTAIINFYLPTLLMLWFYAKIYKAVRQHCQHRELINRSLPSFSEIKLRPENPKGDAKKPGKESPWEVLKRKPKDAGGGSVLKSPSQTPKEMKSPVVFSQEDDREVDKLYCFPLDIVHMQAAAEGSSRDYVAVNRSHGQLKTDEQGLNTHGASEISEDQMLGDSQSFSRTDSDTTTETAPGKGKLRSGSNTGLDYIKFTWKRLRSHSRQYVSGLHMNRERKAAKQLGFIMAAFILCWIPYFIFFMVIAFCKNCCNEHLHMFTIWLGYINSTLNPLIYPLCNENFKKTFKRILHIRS

D(4) dopamine receptor = biological target: T2, D(4) dopamine receptor (Homo sapiens, UniProt P21917); experiment: as §1, with “DRD4” for “HTR1D”
T2 sequence (P21917 whole entry): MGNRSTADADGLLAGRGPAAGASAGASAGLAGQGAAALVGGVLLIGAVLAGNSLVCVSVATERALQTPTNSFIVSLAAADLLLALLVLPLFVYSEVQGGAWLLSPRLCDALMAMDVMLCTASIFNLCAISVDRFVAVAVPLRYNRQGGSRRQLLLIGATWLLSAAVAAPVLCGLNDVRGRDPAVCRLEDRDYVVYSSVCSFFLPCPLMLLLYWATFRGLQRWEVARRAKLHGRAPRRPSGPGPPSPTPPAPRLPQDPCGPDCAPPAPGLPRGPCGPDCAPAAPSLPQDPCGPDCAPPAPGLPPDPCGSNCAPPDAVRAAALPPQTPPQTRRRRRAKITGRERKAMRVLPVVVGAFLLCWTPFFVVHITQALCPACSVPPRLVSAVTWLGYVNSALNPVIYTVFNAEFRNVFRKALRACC

[6] = biological target: T3, Alpha-2B adrenergic receptor (Homo sapiens, UniProt P18089); experiment: as §1, with “ADRA2B” for “HTR1D”
T3 sequence (P18089 whole entry): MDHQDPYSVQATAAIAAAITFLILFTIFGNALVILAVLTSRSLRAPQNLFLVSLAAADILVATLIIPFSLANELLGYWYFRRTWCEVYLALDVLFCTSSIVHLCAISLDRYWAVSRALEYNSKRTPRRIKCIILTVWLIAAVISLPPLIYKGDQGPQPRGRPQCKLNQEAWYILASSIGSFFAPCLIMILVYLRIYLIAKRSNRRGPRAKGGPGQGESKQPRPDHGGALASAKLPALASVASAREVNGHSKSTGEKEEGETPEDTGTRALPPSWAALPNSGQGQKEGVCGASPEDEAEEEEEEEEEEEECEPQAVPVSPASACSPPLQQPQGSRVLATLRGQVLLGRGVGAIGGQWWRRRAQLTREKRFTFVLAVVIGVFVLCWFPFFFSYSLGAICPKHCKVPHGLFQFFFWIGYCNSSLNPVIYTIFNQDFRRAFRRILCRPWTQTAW

[7] = biological target: 5-hydroxytryptamine receptor 1E (Homo sapiens, UniProt P28566); experiment: as §1, with “HTR1E” for “HTR1D”
Chain of 5-hydroxytryptamine receptor 1E (P28566 whole entry): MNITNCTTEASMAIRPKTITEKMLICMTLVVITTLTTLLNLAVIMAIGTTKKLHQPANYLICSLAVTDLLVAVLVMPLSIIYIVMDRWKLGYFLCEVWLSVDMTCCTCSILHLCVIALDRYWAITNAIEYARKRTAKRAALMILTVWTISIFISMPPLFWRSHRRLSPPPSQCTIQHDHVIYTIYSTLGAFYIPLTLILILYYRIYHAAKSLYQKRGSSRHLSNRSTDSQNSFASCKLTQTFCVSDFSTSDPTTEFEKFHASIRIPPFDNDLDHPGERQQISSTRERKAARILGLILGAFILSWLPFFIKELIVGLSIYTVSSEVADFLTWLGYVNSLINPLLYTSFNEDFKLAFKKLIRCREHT

[8] = biological target: T4, 5-hydroxytryptamine receptor 1A (Homo sapiens, UniProt P08908); experiment: as §1, with “HTR1A” for “HTR1D”
T4 sequence (P08908 whole entry): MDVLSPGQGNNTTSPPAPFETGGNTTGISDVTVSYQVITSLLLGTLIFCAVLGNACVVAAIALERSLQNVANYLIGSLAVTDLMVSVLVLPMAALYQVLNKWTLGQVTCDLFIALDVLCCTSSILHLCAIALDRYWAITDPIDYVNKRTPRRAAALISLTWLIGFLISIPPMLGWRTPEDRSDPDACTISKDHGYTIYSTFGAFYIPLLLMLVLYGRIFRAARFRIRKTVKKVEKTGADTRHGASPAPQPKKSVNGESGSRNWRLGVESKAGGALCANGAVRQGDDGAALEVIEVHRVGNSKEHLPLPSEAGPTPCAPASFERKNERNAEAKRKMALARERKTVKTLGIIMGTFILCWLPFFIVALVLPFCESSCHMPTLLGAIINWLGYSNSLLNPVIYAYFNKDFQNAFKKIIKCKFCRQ

`CN1CCN(c2ccc(Nc3c4ccccc4nc4ccccc34)cc2)CC1` showed a Ki [1] of 1620 nM, a Ki [2] of 414 nM and a Ki [3] of 936 nM. It also gave a Ki [4] of 412 nM, a Ki (D(1A) dopamine receptor) of 4540 nM and a Ki [5] of 1580 nM. The Ki (Histamine H1 receptor) was 403 nM.
`Cc1nc2sccn2c(=O)c1CCN1CCC(=C(c2ccc(F)cc2)c2ccc(F)cc2)CC1` [RITANSERIN] gave a Ki [2] of 47.3 nM, a Ki [3] of 339 nM and a Ki (D(4) dopamine receptor) of 238 nM. The Ki [4] was 426 nM, the Ki [6] was 655 nM and the Ki (D(1A) dopamine receptor) was 330 nM. It also gave a Ki [5] of 172 nM, a Ki (Histamine H1 receptor) of 12.2 nM and a Ki [7] of 556 nM.
`S=C(NCCCc1c[nH]cn1)NCCCN(Cc1ccc(Cl)c(Cl)c1)c1ccc(Br)cn1` was tested, and the Ki [2] was 1540 nM, the Ki [3] was 153 nM and the Ki [6] was 512 nM. For the same molecule, the Ki (D(1A) dopamine receptor) was 1720 nM, the Ki [5] was 513 nM and the Ki (Histamine H1 receptor) was 649 nM.
`CN1C[C@H](C(=O)N[C@]2(C)O[C@@]3(O)[C@@H]4CCCN4C(=O)[C@H](Cc4ccccc4)N3C2=O)C[C@@H]2c3cccc4[nH]cc(c34)C[C@H]21` [DIHYDROERGOTAMINE MESYLATE] gave a Ki [8] of 39.1 nM, a Ki [2] of 60.2 nM and a Ki [3] of 2840 nM. It also gave a Ki (D(4) dopamine receptor) of 32.8 nM, a Ki [4] of 604 nM and a Ki [5] of 32.9 nM. The Ki [7] was 682 nM.
Work on `COc1cc(-n2cnc3cc(-c4ccc(Cl)cc4)sc3c2=O)ccc1OCCN1CCCC1` yielded a Ki [1] of 3560 nM, a Ki [3] of 185 nM and a Ki [4] of 12 nM.
`Cc1c(P(=S)(c2ccccc2)c2ccccc2)n2ccccc2[n+]1C/C=C/c1ccccc1` gave a Ki [3] of 701 nM, a Ki [4] of 816 nM and a Ki (Histamine H1 receptor) greater than 10000 nM.
`N#Cc1ccc2[nH]cc(CCCCN3CCN(c4ccc5oc(C(N)=O)cc5c4)CC3)c2c1` [VILAZODONE HYDROCHLORIDE] gave a Ki [1] of 369 nM, a Ki [2] of 794 nM and a Ki [3] of 1090 nM. It also gave a Ki (D(4) dopamine receptor) of 824 nM, a Ki [4] of 14.2 nM and a Ki [5] of 278 nM. It also gave a Ki (Histamine H1 receptor) of 364 nM.
Molecule `Cc1ccc2c(c1)c1c(n2CCc2ccc(C)nc2)CCN(C)C1` [LATREPIRDINE] has a Ki [1] of 419 nM, a Ki [2] of 14.7 nM and a Ki [4] of 1310 nM. The Ki [6] was 45.8 nM, the Ki [5] was 414 nM and the Ki [7] was 5570 nM.
`CN1CCCC(n2nc(Cc3ccc(Cl)cc3)c3ccccc3c2=O)CC1` (stereo unspecified) [AZELASTINE HYDROCHLORIDE] was tested, and the Ki [1] was 885 nM, the Ki [2] was 385 nM and the Ki [3] was 32 nM. It also gave a Ki [4] of 150 nM, a Ki [6] of 230 nM and a Ki (D(1A) dopamine receptor) of 577 nM. It also gave a Ki [5] of 496 nM and a Ki [7] of 5370 nM.
For `CCc1ccc(OCc2ccccc2C(=O)Nc2ccc3nc(C)cc(N)c3c2)cc1`, the Ki [1] was 2780 nM, the Ki [3] was 700 nM and the Ki [4] was 2280 nM. The Ki [6] was 3140 nM.
`OCc1cc(C(O)CNCCCCCCOCCCCc2ccccc2)ccc1O` (stereo unspecified) [SALMETEROL] was tested, and the Ki [1] was 1040 nM, the Ki [2] was 257 nM and the Ki [3] was 32.4 nM. The Ki (D(4) dopamine receptor) was 1080 nM, the Ki [6] was 1940 nM and the Ki [5] was 549 nM.
In the case of `CN(C)C(=O)N[C@H]1CC[C@H](CCN2CCN(c3cccc(Cl)c3Cl)CC2)CC1` [CARIPRAZINE HYDROCHLORIDE], the Ki [1] is reported as 76.8 nM, the Ki [2] is reported as 76.1 nM and the Ki [3] is reported as 488 nM. For the same molecule, the Ki [6] was 1090 nM.
`O=S1(=O)c2cccc3cccc(c23)N1CCCN1CCN(c2ccc(F)cc2)CC1` [FANANSERIN] was tested, and the Ki [8] was 518 nM, the Ki [2] was 744 nM and the Ki [3] was 1320 nM. It also gave a Ki (D(4) dopamine receptor) of 95.7 nM, a Ki [4] of 696 nM and a Ki [6] of 667 nM. It also gave a Ki [5] of 195 nM and a Ki (Histamine H1 receptor) of 30.6 nM.
`Cc1nc(-c2ccc(-c3ccc(C(=O)N4CCc5cc6c(cc54)C4(CCN(C)CC4)CO6)cc3)c(C)c2)no1` [SB-224289] was tested, and the Ki [3] was 502 nM, the Ki [4] was 4340 nM and the Ki [6] was 2170 nM. It also gave a Ki (D(1A) dopamine receptor) of 369 nM.
Molecule `COc1ccc(NC(=O)c2ccc(-c3ccc(-c4noc(C)n4)cc3C)cc2)cc1OCCN(C)C` has a Ki [1] of 15 nM, a Ki [2] of 1100 nM and a Ki [3] of 694 nM. The Ki [4] was 3110 nM, the Ki [6] was 667 nM and the Ki [7] was 981 nM.
`O=c1ccc2ccc(OCCCCN3CCN(c4cccc5sccc45)CC3)cc2[nH]1` [BREXPIPRAZOLE] was tested, and the Ki [8] was 23.2 nM, the Ki [1] was 24 nM and the Ki [2] was 30.4 nM. It also gave a Ki [3] of 63 nM, a Ki (D(4) dopamine receptor) of 36 nM and a Ki [6] of 191 nM. The Ki (D(1A) dopamine receptor) was 37.5 nM, the Ki [5] was 29.3 nM and the Ki (Histamine H1 receptor) was 8.88 nM. For the same molecule, the Ki [7] was 478 nM.
In the case of `COC(=O)C1=C(C)NC(C)=C(C(=O)OCCCN2CCC(c3ccccc3)(c3ccccc3)CC2)[C@H]1c1cccc([N+](=O)[O-])c1` [NIGULDIPINE], the Ki [8] is reported as 539 nM, the Ki [2] is reported as 313 nM and the Ki [3] is reported as 328 nM. For the same molecule, the Ki [4] was 320 nM, the Ki (D(1A) dopamine receptor) was 370 nM and the Ki (Histamine H1 receptor) was 89.7 nM.
With `C[C@H](Cc1cc2c(c(C(N)=O)c1)N(CCCO)CC2)NCCOc1ccccc1OCC(F)(F)F` [SILODOSIN] the Ki [8] was 47 nM, the Ki [1] was 91.7 nM and the Ki [2] was 480 nM. The Ki (D(4) dopamine receptor) was 1580 nM, the Ki [6] was 786 nM and the Ki [5] was 30.3 nM. It also gave a Ki (Histamine H1 receptor) of 3530 nM.
Molecule `CCCCCNC(=N)N/N=C/c1c[nH]c2ccc(OC)cc12` [TEGASEROD MALEATE] has a Ki [8] of 83.9 nM, a Ki [1] of 50.1 nM and a Ki [3] of 57.2 nM. For the same molecule, the Ki (D(4) dopamine receptor) was 191 nM, the Ki [4] was 177 nM and the Ki [6] was 2840 nM. The Ki [5] was 1630 nM.
In the case of `Clc1cccc(COc2cncc(N3CCNCC3)n2)c1`, the Ki [8] is reported as 7440 nM, the Ki [1] is reported as 69.5 nM and the Ki [2] is reported as 556 nM. It also gave a Ki [4] of 32.7 nM, a Ki (Histamine H1 receptor) of 1450 nM and a Ki [7] of 1450 nM.
With `CCc1nn(CCCN2CCN(c3cccc(Cl)c3)CC2)c(=O)n1CCOc1ccccc1` [NEFAZODONE HYDROCHLORIDE] the Ki [1] was 122 nM, the Ki [2] was 70.2 nM and the Ki [3] was 222 nM. The Ki (D(4) dopamine receptor) was 326 nM, the Ki [6] was 192 nM and the Ki [5] was 137 nM. The Ki (Histamine H1 receptor) was 125 nM.

Source: ChEMBL document CHEMBL5442175, “EUbOPEN Chemogenomics Library - PDSP Secondary Binding” (2024)
